Source: patent US9726663B2, “Method of identifying or evaluating synergistic combinations of actives and compositions containing the same” (The Procter & Gamble Company, priority 2012, dated 2017)

Columns and labels:
[1] = system: human, dermal fibroblasts (BJ cell line); assay: Oxygen consumption rate (oxidative phosphorylation) of fibroblasts, XF Extracellular Flux Analyzer; assay type: cell-based; parameters: Average OCR value per treatment group: unit not given here; conditions: for effect on reduction in OCR caused by hydrogen peroxide: in combination with 1.5 mM H2O2
Procedure: (§1) With regard to the fibroblasts discussed above in FIGS. 5A, 5B, SC, 5D, 5E, 6, 7A, 7B, 7C, 7D, 7E and 8 frozen, human dermal fibroblasts were obtained from the BJ cell line commercially available from ATCC, Bethesda, Md. The fibroblasts were grown to 70-80% confluence in a fibroblast culture medium of Eagle's Minimum Essential Medium (“EMEM”) supplemented with 10% fetal bovine serum (“FBS”) and gentamicin/amphotericin B ×500 solution (EMEM and FBS are available from ATCC and gentamicin/amphotericin B ×500 solution is available from Invitrogen). […] Each well included 100 μL of the fibroblast medium described above. A test medium was made from Dulbecco's Modified Eagle Medium (available from Seahorse Bioscience), 25 mM Glucose and 1 mM pyruvate. The test medium was warmed to 37° C. and the pH adjusted to 7.4. The cells were grown and plated at 37° C. and 5% CO2 air. The fibroblast medium in the wells was replaced by the test medium 1 hour prior to taking measurements. Oxygen consumption rate and extracellular acidification rate may be detected using an XF Extracellular Flux Analyzer or equivalent. The device should be capable of non-lethally and simultaneously detecting metabolic indicators of the oxphos and glycolysis pathways in a controlled environment, as well as providing […]. The cells may be provided in a multi-well plate suitable for use with the instrument (e.g., 24-well or 96 well plate) and washed prior to testing. The cells may be washed by any suitable means known in the art (e.g., using a Seahorse Biosciences XF prep station). It may be desirable to use a suitable prep station such as an XF prep station available from Seahorse Biosciences). When washing the cells, it may be desirable to remove the medium from the wells and wash the cells three times with a suitable amount of test medium (e.g., 180 μL in a 96-well plate or 600 μL in a 24-well plate). After washing the cells, a suitable amount (e.g., 180 μL) of an appropriate test medium is placed in each well, and the cells are equilibrated at 37° C. in a CO2-free incubator for 1-1.5 hours prior to taking placing the plate in the instrument for testing. Following the equilibration period, load the plate containing the cells into the instrument and equilibrate according to manufacturer's instructions. The entire test is conducted at 37° C. In some embodiments, the instrument may be to provide a three minute mix cycle, a two minute wait cycle, and a 3 minute measurement cycle for keratinocytes and a two minute mix cycle, two minute wait cycle, and 3 minute measurement cycle for fibroblasts. The cycles should be repeated for at least 88 minutes. It is to be appreciated that the cycles and times may be modified according to cell type and experiment design, as desired. The following example illustrates how the method herein can be used to identify synergistic combinations of skin care actives. Hydrogen peroxide is a well known ROS, and is used in this example to illustrate the undesirable metabolic effects associated with exposure of a cell to an oxidative stressor. The hydrogen peroxide was prepared at 10X working concentration in the fibroblast test medium described above. The test agents are niacinamide (also known as vitamin B3) and tocoquinone both commercially available from Sigma. The test agents were each prepared at 10× the final working concentration in the fibroblast test medium described above to provide a test agent solution. The stressor solution and the test agent solutions were both warmed to 37° C. and pH adjusted to 7.4. The cells are frozen, human, dermal fibroblasts obtained from ATCC (BJ cell line). The cells were cultured and prepared according to the test method described above. The fibroblasts were plated in Gelatin-coated, 96-well plate. Each well contained approximately 4×10^4 cells and 180 μL of fibroblast test medium (i.e., Seahorse Biosciences DMEM, 25 mM glucose and 1 mM pyruvate) at 37° C. and pH 7.4. […]

[2] = system: human, dermal fibroblasts (BJ cell line); assay: Extracellular acidification rate (glycolysis) of fibroblasts, XF Extracellular Flux Analyzer; assay type: cell-based
Procedure: as §1

[3] = rate number 1, before addition of stressor/test agents (basal)
[4] = rate number 2, before addition of stressor/test agents (basal)
[5] = rate number 3, before addition of stressor/test agents (basal, reference)
[6] = rate number 4, 1.5 mM hydrogen peroxide, 0.25 mM niacinamide, 0.025 mM tocoquinone
[7] = rate number 5, 1.5 mM hydrogen peroxide, 0.25 mM niacinamide, 0.025 mM tocoquinone
[8] = rate number 6, 1.5 mM hydrogen peroxide, 0.25 mM niacinamide, 0.025 mM tocoquinone
[9] = rate number 7, 1.5 mM hydrogen peroxide, 0.25 mM niacinamide, 0.025 mM tocoquinone
[10] = rate number 8, 1.5 mM hydrogen peroxide, 0.25 mM niacinamide, 0.025 mM tocoquinone
[11] = rate number 9, 1.5 mM hydrogen peroxide, 0.25 mM niacinamide, 0.025 mM tocoquinone
[12] = rate number 10, 1.5 mM hydrogen peroxide, 0.25 mM niacinamide, 0.025 mM tocoquinone
[13] = rate number 11, 1.5 mM hydrogen peroxide, 0.25 mM niacinamide, 0.025 mM tocoquinone
[14] = rate number 12, 1.5 mM hydrogen peroxide, 0.25 mM niacinamide, 0.025 mM tocoquinone
[15] = rate number 13, 1.5 mM hydrogen peroxide, 0.25 mM niacinamide, 0.025 mM tocoquinone
[16] = rate number 14, 1.5 mM hydrogen peroxide, 0.25 mM niacinamide, 0.025 mM tocoquinone
[17] = rate number 15, 1.5 mM hydrogen peroxide, 0.25 mM niacinamide, 0.025 mM tocoquinone
[18] = rate number 16, 1.5 mM hydrogen peroxide, 0.25 mM niacinamide, 0.025 mM tocoquinone
[19] = rate number 17, 1.5 mM hydrogen peroxide, 0.25 mM niacinamide, 0.025 mM tocoquinone
[20] = rate number 18, 1.5 mM hydrogen peroxide, 0.25 mM niacinamide, 0.025 mM tocoquinone
[21] = 0.25 mM niacinamide, 0.025 mM tocoquinone

Row | SMILES | Average OCR value per treatment group [1, 3] | Average OCR value per treatment group [1, 4] | Average OCR value per treatment group [1, 5] | Average OCR value per treatment group [1, 6] | Average OCR value per treatment group [1, 7] | Average OCR value per treatment group [1, 8] | Average OCR value per treatment group [1, 9] | Average OCR value per treatment group [1, 10] | Average OCR value per treatment group [1, 11] | Average OCR value per treatment group [1, 12] | Average OCR value per treatment group [1, 13] | Average OCR value per treatment group [1, 14] | Average OCR value per treatment group [1, 15] | Average OCR value per treatment group [1, 16] | Average OCR value per treatment group [1, 17] | Average OCR value per treatment group [1, 18] | Average OCR value per treatment group [1, 19] | Average OCR value per treatment group [1, 20] | Average ECAR value per treatment group [2, 3] | Average ECAR value per treatment group [2, 4] | further results
1 | OO [hydrogen peroxide, reference compound] | 97.05 | 99.80 | 100 | −139.75 | −4.58 | −6.07 | −24.10 | −34.10 | −44.54 | −53.81 | −58.25 | −63.85 | −70.69 | −73.38 | −76.46 | −76.97 | −76.26 | −76.76 | 101.82 percentage of rate 3 | 100.66 percentage of rate 3 | effect on OCR (oxphos metabolism) ([1]; 1.5 mM H2O2 by itself): relatively sharp decrease in OCR followed by a less rapid increase; effect on extracellular acidification rate (glycolysis metabolism) ([2]; 1.5 mM hydrogen peroxide by itself): substantial decrease in extracellular acidification rate; Average ECAR value per treatment group [2, 5]: 100 percentage of rate 3; Average ECAR value per treatment group [2, 6]: 48.46 percentage of rate 3; Average ECAR value per treatment group [2, 7]: 29.55 percentage of rate 3; Average ECAR value per treatment group [2, 8]: 33.64 percentage of rate 3; Average ECAR value per treatment group [2, 9]: 37.41 percentage of rate 3; Average ECAR value per treatment group [2, 10]: 28.20 percentage of rate 3; Average ECAR value per treatment group [2, 11]: 17.74 percentage of rate 3; Average ECAR value per treatment group [2, 12]: 15.41 percentage of rate 3; Average ECAR value per treatment group [2, 13]: 14.87 percentage of rate 3; Average ECAR value per treatment group [2, 14]: 13.82 percentage of rate 3; Average ECAR value per treatment group [2, 15]: 13.32 percentage of rate 3; Average ECAR value per treatment group [2, 16]: 12.78 percentage of rate 3; Average ECAR value per treatment group [2, 17]: 11.82 percentage of rate 3; Average ECAR value per treatment group [2, 18]: 11.52 percentage of rate 3; Average ECAR value per treatment group [2, 19]: 11.36 percentage of rate 3; Average ECAR value per treatment group [2, 20]: 11.57 percentage of rate 3
2 | NC(=O)c1cccnc1 [niacinamide] | 99.16 | 101.76 | 100 | −21.15 | 63.31 | 60.15 | 47.41 | 38.52 | 34.85 | 32.39 | 31.10 | 32.43 | 30.49 | 29.48 | 28.18 | 26.95 | 25.83 | 23.41 | 107.35 percentage of rate 3 | 99.41 percentage of rate 3 | effect on reduction in OCR caused by hydrogen peroxide [1, 21]: appears to lessen the reduction in OCR caused by the hydrogen peroxide; effect on acidification rate (glycolysis metabolism) ([2]; 0.25 mM niacinamide added by itself, no hydrogen peroxide): does not significantly affect glycolysis metabolism; effect on glycolysis metabolism in combination with hydrogen peroxide ([2]; added in combination with 1.5 mM hydrogen peroxide): appears to lessen the detrimental effect of the hydrogen peroxide on glycolysis metabolism; Average ECAR value per treatment group [2, 5]: 100 percentage of rate 3; Average ECAR value per treatment group [2, 6]: 64.35 percentage of rate 3; Average ECAR value per treatment group [2, 7]: 33.18 percentage of rate 3; Average ECAR value per treatment group [2, 8]: 34.48 percentage of rate 3; Average ECAR value per treatment group [2, 9]: 42.19 percentage of rate 3; Average ECAR value per treatment group [2, 10]: 49.60 percentage of rate 3; Average ECAR value per treatment group [2, 11]: 55.87 percentage of rate 3; Average ECAR value per treatment group [2, 12]: 60.52 percentage of rate 3; Average ECAR value per treatment group [2, 13]: 62.89 percentage of rate 3; Average ECAR value per treatment group [2, 14]: 60.57 percentage of rate 3; Average ECAR value per treatment group [2, 15]: 57.46 percentage of rate 3; Average ECAR value per treatment group [2, 16]: 55.04 percentage of rate 3; Average ECAR value per treatment group [2, 17]: 52.85 percentage of rate 3; Average ECAR value per treatment group [2, 18]: 51.52 percentage of rate 3; Average ECAR value per treatment group [2, 19]: 49.85 percentage of rate 3; Average ECAR value per treatment group [2, 20]: 47.58 percentage of rate 3
3 | CC1=C(C)C(=O)C(CCC(C)(O)CCCC(C)CCCC(C)CCCC(C)C)=C(C)C1=O (stereo not drawn) [tocoquinone] | 101.04 | 101.44 | 100 | −21.48 | 64.55 | 68.43 | 59.47 | 53.35 | 49.83 | 48.18 | 48.82 | 49.81 | 47.50 | 44.97 | 41.00 | 37.55 | 32.67 | 28.15 | 107.45 percentage of rate 3 | 99.58 percentage of rate 3 | effect on reduction in OCR caused by hydrogen peroxide [1, 21]: appears to lessen the reduction in OCR caused by the hydrogen peroxide about the same or slightly less than the niacinamide; Average ECAR value per treatment group [2, 5]: 100 percentage of rate 3; Average ECAR value per treatment group [2, 6]: 56.77 percentage of rate 3; Average ECAR value per treatment group [2, 7]: 35.13 percentage of rate 3; Average ECAR value per treatment group [2, 8]: 32.57 percentage of rate 3; Average ECAR value per treatment group [2, 9]: 32.46 percentage of rate 3; Average ECAR value per treatment group [2, 10]: 34.54 percentage of rate 3; Average ECAR value per treatment group [2, 11]: 36.55 percentage of rate 3; Average ECAR value per treatment group [2, 12]: 36.68 percentage of rate 3; Average ECAR value per treatment group [2, 13]: 35.75 percentage of rate 3; Average ECAR value per treatment group [2, 14]: 32.86 percentage of rate 3; Average ECAR value per treatment group [2, 15]: 29.78 percentage of rate 3; Average ECAR value per treatment group [2, 16]: 28.15 percentage of rate 3; Average ECAR value per treatment group [2, 17]: 28.07 percentage of rate 3; Average ECAR value per treatment group [2, 18]: 30.73 percentage of rate 3; Average ECAR value per treatment group [2, 19]: 31.49 percentage of rate 3; Average ECAR value per treatment group [2, 20]: 31.18 percentage of rate 3
